Experimental findings from a melting point compilation (Tetko et al.; mined from patent text by program, amines drawn as free bases though some values may be those of a salt) are described below.

For orientation: melting point means the temperature, or range, at which the solid turns liquid.

The molecule `Cc1nnc(-c2ccc3occ(-c4ccc(S(=O)C(C)C)cc4)c3c2)o1` (stereo not drawn) showed a melting point of 157 to 158 °C.
Turning to `COC(=O)c1cnc(S)n1Cc1cc(F)cc(F)c1`, the melting point was in the range of 177 to 178 °C.
For the molecule `O=C(O)Cc1ccccc1Oc1ccccc1`, the melting point lay in the range of 82 to 85 °C.
For the molecule `Nc1ccc2nc(-c3ccc4c(c3)OCO4)ncc2c1`, the melting point is 191 to 192 °C.
To `CCc1nc2c(C)nn(C)c2c2nc(C)cn12` belongs 182 to 183 °C; to `CC1N=C(c2ccccc2F)c2cc(C#N)ccc2NC1=O` (stereo not drawn), 216 °C; to `N#CCc1ccc2onc(-c3ccc(Cl)cc3)c2c1`, 118 °C.
`CCC(CC)N(O)C(=O)Nc1ccc(Oc2ccccc2)cc1` showed a melting point of 124 to 125 °C.
In turn, `N#CC1C(=O)NC(=O)C(C(=O)O)C12CCCCC2` (stereo not drawn) came in with a melting point of 210 to 214 °C.
In turn, `Cc1oc(-c2ccccc2)nc1COc1cccc(COc2cc(CCC(=O)O)n(-c3ccccc3)n2)c1` returned a melting point of 137 to 138 °C.
The molecule `FC(F)(F)c1cccc(CSc2nnc(-c3ccc4nccn4c3)o2)c1` displayed a melting point of 147 to 148 °C.
`CN(C)C(=O)c1cccc(CN2C(=O)C3(COc4cc5c(cc43)OCCO5)c3ccccc32)c1` (stereo not drawn): the melting point lay within 90 to 96 °C.
Molecule `CCOc1ccc2c(c1)n(-c1ccccn1)c(=O)n2S(=O)(=O)c1ccc(NC(=O)N(CC)CC)cc1OC` yielded a melting point of 171 °C.
`CSc1ccc(N)c(C(=O)NN)c1` had a melting point of 124 to 127 °C.
Then `COC(=O)c1cn(-c2ccc(O)cc2C)c(C2CCC(Br)C(Br)C2)cc1=O` (stereo not drawn), with 197 to 200 °C; and `c1cc(-c2ccc3c(c2)OCO3)cc(Nc2ccc3c(c2)OCCO3)n1`, with 116 to 118 °C.
As for `CCCn1c(=O)cc2n(c1=O)CC(CSc1ccccc1)S2` (stereo not drawn), the melting point is 88 to 89 °C.
For the molecule `O=C(O)CCC(CCCCNS(=O)(=O)c1ccc(Cl)cc1)CCCn1ccnc1` (stereo not drawn), the melting point lay in the range of 136 to 138 °C.
`CCn1cc(C(=O)O)c(=O)c2cc(F)c(N3CCNC(COC)C3)cc21` (stereo not drawn) registered a melting point of 169 to 170 °C.
`CNc1c([N+](=O)[O-])ccc2c1OC(COS(=O)(=O)c1ccc(C)cc1)CO2` (stereo not drawn) yielded a melting point of 149 to 151 °C.
Molecule `CC12CCC(C(=O)O)=CC1=CCC1C2CCC2(C)C(C(=O)c3ccccc3)CCC12` (stereo not drawn) showed a melting point of 222 to 225 °C.
`CC1(C)CC(NS(C)(=O)=O)c2cc(OCc3ccccc3)ccc2O1` (stereo not drawn) showed a melting point of 162 to 165 °C.
The molecule `FC(F)(F)c1c[nH]c(-c2ccc(OCC3CO3)cc2)n1` (stereo not drawn) returned a melting point of 152 to 154 °C.
In the case of `S=C(NCc1cccnc1)NC(Cc1cccc2ccccc12)=Nc1ccccc1`, the melting point was 162 to 163 °C.
Molecule `O=C(NC[C@H]1CN(c2ccc3c(c2)CCCc2cn[nH]c2-3)C(=O)O1)C(F)F` gave a melting point of 147 to 150 °C.
The molecule `CNC1Oc2cc(Cl)cc(-c3ccc(Cl)cc3Cl)c2O1` (stereo not drawn) came in with a melting point above 250 °C.
In turn, `COc1ccc(Sc2sc(S(N)(=O)=O)cc2C)cc1` registered a melting point of 107 to 110 °C.
For `CN(Cc1cc2c(=O)c(C(=O)NCc3ccc(Cl)cc3)cn(C)c2s1)C[C@@H](O)c1ccco1`, the melting point was 159 to 162 °C.
Take `Cc1c(C)c(C2CC(=O)C=C(O)C2)c(Cl)c2c1CCO2` (stereo not drawn): the melting point came out at 224 °C.
The molecule `CC(C)(C)OC(=O)N1CC(CCl)c2ccc([N+](=O)[O-])cc21` (stereo not drawn) returned a melting point of 111 to 112 °C.
Regarding `COc1ncccc1Cc1cc2cccc(-c3cccc(C(=O)NCCO)c3)c2s1`, the melting point lay in the range of 121 to 122 °C.
To `CN(C(N)=O)C1c2ccccc2Oc2ccccc21` belongs 199 to 202 °C; to `O=C1c2cc(O)cc(O)c2C(=O)C1c1ccc(O)cc1` (stereo not drawn), 180 °C; to `COC(c1ccc(Cl)cc1)(c1ccc(NC(=O)c2cccc(I)c2C(=O)NC(C)C)c(C)c1)C(F)(F)F` (stereo not drawn), 212 to 214 °C.
For the molecule `O=C1NCCc2c(-c3cccc(CCO)c3)[nH]c3cccc1c23`, the melting point was found to be 188 °C.
Then `Nc1ccc(Cl)cc1C(=O)c1ccccc1OCc1ccccc1`, with 110 to 111 °C; and `CC(C)(C)OC(=O)NC1CCC2(CC1)CSC1=C(O2)c2ccccc2C(=O)C1=O` (stereo not drawn), with 224 to 225 °C.
Turning to `CCN(CC)CC#CC(=O)Nc1ccc2ncc(C#N)c(Nc3ccc(F)c(Cl)c3)c2c1`, the melting point lay in the range of 117 to 120 °C.
Molecule `CCOCc1cc(COc2cc(C)nc(C)c2OC)ccc1-c1ccccc1S(=O)(=O)Nc1noc(C)c1C` returned a melting point of 78 to 82 °C.
Take `Cc1cn2ccc(NC(=O)C(F)(F)F)c(I)c2n1`: the melting point was determined as 168 °C.
`Cc1ccc(S(=O)(=O)OCC(O)(CC(C)(C)c2ccccc2)C(F)(F)F)cc1` (stereo not drawn) came in with a melting point of 78 °C.
To `Cc1ccc(C(=O)Nc2ccc(N3CCN(C(=O)OC(C)(C)C)CC3)cc2)c(-c2ccc(C(C)C)cc2)c1` belongs 173 to 175 °C.
The molecule `CC(C)(C)OC(=O)N1C[C@H](n2ccc(NC(=O)c3ccccc3)nc2=O)C[C@@H]1C(=O)OC(c1ccccc1)c1ccccc1` registered a melting point of 133 to 135 °C.
`COc1ccc2c(Cc3c(Cl)cncc3Cl)nnc(N(C)C)c2c1` showed a melting point of 170 to 173 °C.
Then `C=CCN(C(C)C)C(C)CC1=C(c2ccc(OC)cc2)CCCNC1=O` (stereo not drawn), with 95 to 97 °C; and `CS(=O)(=O)c1ccc(-n2cc(C(F)F)nc2-c2ccc(Cl)cc2)cc1`, with 179 to 180 °C.
In turn, `O=C(O)CC(=O)Nc1ccc(Br)cc1C(=O)O` displayed a melting point of 203 to 206 °C.
Regarding `Cc1ccccc1-n1cc(-c2ccccc2)c(CC(=O)O)n1`, the melting point was determined as 177 °C.
In turn, `Brc1ccccc1SSc1ccccc1Br` returned a melting point of 95 to 97 °C.
To `CCC1(CC)CC(=O)c2ccc(O)cc2O1` belongs 97 to 99 °C.
To `CCCc1c(OCc2cccc(C(=O)O)c2)ccc(C(C)=O)c1O` belongs 216 to 220 °C; to `O=C(O)CCc1cn(Cc2ccc(OCc3csc(-c4ccco4)n3)cc2)cc1-c1ccccc1`, 114 to 115 °C; to `CCOc1ccc2c(c1)n(C1CCOCC1)c(=O)n2S(=O)(=O)c1ccc(C(=O)OC)cc1OC`, 165 °C.
`O=C(Nc1c(Cl)cncc1Cl)c1ccc(SCF)c(OC2CCCC2)c1` displayed a melting point of 111 to 113 °C.
In turn, `CON=C(C(=O)OC)c1ccccc1/C=C(\Cl)C(=O)O` showed a melting point of 107 to 109 °C.
On to `N#Cc1cccc(Nc2nc(N)c(C(=O)c3ccccc3C#N)s2)c1`, for which the melting point is 235 to 236 °C.
Molecule `COC(=O)C(C#N)=Cc1cccs1` came in with a melting point of 104 to 106 °C.
Then `COc1cc2ncc(C#N)c(Nc3cccc(O)c3C)c2cc1OC`, with 255 to 257 °C.
For `N#Cc1cc(F)c(-n2c(=O)cc(C(F)(F)F)[nH]c2=O)cc1Oc1cccc2c(O)cccc12`, the melting point came to 168 °C.
In the case of `CCOC1(OCC)CCC2(CC1)c1cc(O)c(O)cc1CC(C(=O)O)N2C(=O)OCc1ccccc1` (stereo not drawn), the melting point fell in the range of 132 to 133 °C.
With `CC(C)(C)OC(=O)NCCNCCNC(=O)OC(C)(C)C`, the melting point lay in the range of 69 to 71 °C.
The molecule `CCCc1n[nH]c(C(N)=O)c1[N+](=O)[O-]` gave a melting point of 197 to 199 °C.
`CN1CCC(C2c3cccc4c3N(CC4)c3ccccc3N2C)CC1` (stereo not drawn): the melting point was 138 to 139 °C.
In turn, `O=c1ccn(-c2ccc(Cl)cc2)nc1-c1ccnn1-c1ccccc1` displayed a melting point of 219 to 220 °C.
To `COc1ccccc1N1CCN(C(=O)CCCN2CC=C(c3c[nH]c4cc(Cl)ccc34)CC2)CC1` belongs 93 to 95 °C; to `COC(=O)CCc1cc(C(C)(C)C)c(O)c(C(C)(C)C)c1`, 63 to 64.5 °C.
`CSC1=C(Cl)CC2C3CCC4=CC(=O)C=CC4(C)C3(F)C(O)CC12C` (stereo not drawn) returned a melting point of 262 to 268 °C.
On to `CCCCCCCCCCCCCCS(N)(=O)=O`, for which the melting point lay within 92 to 93 °C.
To `CNC(=O)Nc1cc(C(C)(C)C)c2c(c1)C(C)(C)CS2` belongs above 150 °C; to `COC(=O)C12OC1(Cc1ccc(Cl)cc1)CCC2(C)C` (stereo not drawn), 86 to 87 °C.
Turning to `N=C(N)c1ccc(NC(=O)N(c2cccc(C(=N)N)c2)C2CCCCCC2)cc1`, the melting point is 204 to 206 °C.
Turning to `CCOC(=NS(C)(=O)=O)N1Cc2ccccc2-c2ccccc2C1`, the melting point lay within 136 to 138 °C.
`Cc1cnc2[nH]cc(/C=C3\N=C(NCC4CC4)NC3=O)c2c1`: the melting point was in the range of 319 to 320 °C.
`Cc1ccc(S(=O)(=O)N2CCCC2c2nnnn2[C@@](C)(Cc2ccc([N+](=O)[O-])cc2)C(=O)O)cc1` (stereo partly drawn) registered a melting point of 150 to 160 °C.
As to `N=c1ccccn1COc1ccccc1Br`, the melting point was 62 to 64 °C.
Then `CC(=O)OCC1OC(n2cc(C(Br)=CI)c(=O)[nH]c2=O)CC1OC(C)=O` (stereo not drawn), with 82 to 84 °C.
Molecule `Fc1ccc(-c2cnn3cnnc3n2)cc1` returned a melting point above 300 °C.
`CC(=O)NCC1CNC(=O)O1` (stereo not drawn) came in with a melting point of 138 °C.
In turn, `CCc1oc2ccccc2c1C(=O)c1ccc(Cl)c(S(N)(=O)=O)c1` showed a melting point of 170 to 172 °C.
Molecule `Nc1ccc2ccc(Oc3cccc(Cl)c3)nc2n1` showed a melting point of 166 °C.
Regarding `CN1CCN(S(=O)(=O)c2cc(NC(=O)c3cnn4c(C(F)(F)F)cc(-c5ccc(C(F)(F)F)cc5)nc34)c(Cl)s2)CC1`, the melting point turned out to be 301 °C.
The molecule `CCCCc1nc2cc(CO)ccc2n1Cc1ccc(-c2ccccc2C(=O)O)cc1` returned a melting point of 130 to 143 °C.
In turn, `O=c1cccc2c([N+](=O)[O-])cccc2n1` returned a melting point of 139 to 141 °C.
As for `O=C(O)CC[C@@H](CSc1ccc(Cc2ccccc2)cc1)NC(=O)CCCCCCc1ccccc1`, the melting point lay in the range of 89 to 91.5 °C.
Consider `CC(C)(C)c1ccc(C2OCC(CO)(NC(=O)c3c(Cl)cccc3Cl)CO2)cc1` (stereo not drawn), for which the melting point lay within 178 to 180 °C.
Take `O=C1[C@@H]2CSC(c3ccccc3)N2C(=O)N1Cc1ccccc1` (stereo partly drawn): the melting point was 79 °C.
In turn, `CCOC(=O)CCNC(=O)CCNC(=O)c1csc(NC(=N)N)n1` gave a melting point of 154 to 157 °C.
Then `CCOC(=O)c1csc(-c2ccc3nc(CC(C)C)c(CN)c(-c4ccc(C)cc4)c3c2)n1`, with 150 to 152 °C.
